The source of these data is article PMC8539346, “Synthesis and Evaluation of a Dimeric RGD Peptide as a Preliminary Study for Radiotheranostics with Radiohalogens” (Molecules, 2021).

Read-outs that look alike come from different tables or passages of the source.

The format of series [1] is physicochemical. As to the method:
(§1) An experimental Log p value of [^125I]6 was −2.33 ± 0.04. The value was higher than that of the monomeric radioiodine-labeled RGD peptide [^125I]c[RGDf(4-I)K] (−3.04 ± 0.46) from our previous study.
The partition coefficient of [^125I]6 was measured as described previously. The radioactivity in each phase was measured with an auto-well gamma counter. The partition coefficient was determined by calculating the ratio of 1-octanol to the buffer and was expressed as a common logarithm (log P).

Series [2] has as its system U-87 MG tumor bearing mice. The following applies: mouse. The protocol: A comparison of the biodistribution experiments in U-87 MG tumor mice between [^125I]6 and [^125I]c[RGDf(4-I)K] is shown in Figure 3 and Table S1. [^125I]6 was highly accumulated in the tumor based on the results of the in vitro assay. […] (2.93 ± 0.08% ID/g). The accumulation of [^125I]6 in the liver and intestines also tended to be higher than that of [^125I]c[RGDf(4-I)K]. Meanwhile, it is known that the radioactive accumulation in the thyroid gland and stomach is an index of deiodination of radioiodine labeled probes.
Experiments with animals were conducted in strict accordance with the Guidelines for the Care and Use of Laboratory Animals of Kanazawa University. The experimental protocols were approved by the Committee on Animal Experimentation of Kanazawa University. The animals were housed with free access to food and water at 23 °C with a 12 h alternating light/dark schedule. We used a U-87 MG cell line because it was reported that the U-87 MG highly expresses αvβ3 integrin [26]. […] The radioactivity counts of ^125I was determined with an auto-well gamma counter (ARC-7010, Hitachi, Ltd., Tokyo, Japan) and corrected for background radiation and physical decay during counting. […]
Table S1. Biodistribution of radioactivity after intravenous injection of […]
Expressed as % injected dose per gram. […]
‡ Expressed as % injected dose.
Significance was determined by paired Student’s t test. […]

A short description of series [3]: In vitro stability in PBS(−). It counts as physicochemical. Particulars: PBS(−) pH 7.4, 37 °C, 24 h, 37 kBq tracer in 100 µL, RP-HPLC; mean ± SD for three samples. The protocol:
An in vitro stability experiment of [^125I]6 in PBS(−) (pH 7.4) solution was performed. After incubation at 37 °C for 24 h, 90.8 ± 0.7% (mean ± SD for three samples) of its radioactivity remained intact.
To evaluate the stability of [^125I]6 in PBS(−), 10 µL of each tracer (37 kBq) was added to 90 µL of PBS(−) (pH 7.4), and the solutions were incubated at 37 °C for 24 h. After incubation, the samples were drawn, and the radioactivity was analyzed by RP-HPLC.

For series [4] the following is noted: cited from earlier work.
Excerpt: as §1

Series [5] concerns the target T1, αvβ3 integrin (Homo sapiens, UniProt P05106+P06756).
T1 construct: host or cells: U-87 MG glioblastoma cells
In words: αvβ3 integrin competitive binding assay with U-87 MG cells, radioligand [^125I]c[RGDy(3-I)V]. Particulars: competitive inhibition of [^125I]c[RGDy(3-I)V] binding, mean ± SD for three independent experiments. The protocol: The affinity of 6 and E[c(RGDfK)]2, a dimer RGD peptide without iodine, for αvβ3 integrin was determined via a competitive binding assay with U-87 MG cells. Binding of the radioligand [^125I]c[RGDy(3-I)V] to αvβ3 integrin was inhibited by 6 and E[c(RGDfK)]2 in a concentration-dependent manner.
Binding affinities of synthesized peptides E[c(RGDfK)]2 and 6 for αvβ3 integrin were evaluated by competitive inhibition between the peptides and [^125I]c[RGDy(3-I)V], which was prepared by Fmoc solid-phase synthesis and following ^125I-labeling with chloramine-T method, to αvβ3 integrin according to a previously reported procedure. The peptides’ half maximal inhibitory concentration (IC50) values were calculated by curve fitting with nonlinear regression using GraphPad Prism 8.4.3 (GraphPad Software Inc., San Diego, CA, USA). Each data point is the average of four determinations, and IC50 values were expressed as mean ± standard deviation (SD) from three independent experiments.
Figure 2 αvβ3 Integrin binding assay. Representative displacement curves of the competitive binding of [^125I]c[RGDy(3-I)V] to αvβ3 integrin on U-87 MG cells with E[c(RGDfK)]2 and 6. Error bars represent SD.

In series [6] the target is T1, αvβ3 integrin. Particulars: monomer RGD peptide; cited from earlier work. As to the method:
The binding affinity of 6 for αvβ3 integrin (IC50: 1.2 ± 0.5 nM) was higher than that of c[RGDf(4-I)K] […] It was reported that IC50 values of dimeric RGD peptides in the αvβ3 integrin competitive binding assay were an order lower than those of original monomeric RGD peptides. Thus, the IC50 value of dimerizing peptide 6 was consistent with those described in previous studies.

With “E[c(RGDfK)]{[^125I]c[RGDf(4-I)K]}2 [[^125I]6]”, in series [1], the “Log p (partition coefficient)” value is recorded as −2.33 ± 0.04. The “in vivo deiodination (radioactivity in neck containing thyroid glands and stomach)” value in series [2] is on record as “hardly occurred”. Moreover, the radioactivity remained intact in series [3] is 90.8 ± 0.7%.
For [^125I]c[RGDf(4-I)K], in series [4], the “Log p (partition coefficient)” value is −3.04 ± 0.46.
With `N=C(N)NCCC[C@@H]1NC(=O)[C@H](CCCCNC(=O)CC[C@H](N)C(=O)NCCCC[C@@H]2NC(=O)[C@@H](Cc3ccc(I)cc3)NC(=O)[C@H](CC(=O)O)NC(=O)CNC(=O)[C@H](CCCNC(=N)N)NC2=O)NC(=O)[C@@H](Cc2ccccc2)NC(=O)[C@H](CC(=O)O)NC(=O)CNC1=O` [Compound 6, E[c(RGDfK)]{c[RGDf(4-I)K]}], the IC50 on αvβ3 integrin [5] was 1.2 ± 0.5 nM.
On to c[RGDf(4-I)K], for which the IC50 with αvβ3 integrin [6] is 23.2 ± 17.2 nM.
